Measured values from patent publication US11944608B2, “Targeting RNA viruses using inhibitors of METTL3” (priority 2020, dated 2024).
Entries after “also recorded” stand apart in the source; their conditions may differ. Read-outs that look alike come from different tables or passages of the source.

Tests used:
MRCS cells = assay: MRCS cell viability (ATP, Celltiterglo2.0); assay type: cell-based, human
Experimental: To determine viability, cells were seeded to opaque white 96-well plates. The next day, cells were drug- or vehicle-treated and incubated as in infection experiments (for example, treated-MRC-5 cells were placed for 48 h at 33° C.). ATP levels were then assayed using Celltiterglo2.0 (Promega G9242) according to the manufacturer's instructions. Luciferase signal was read on a Perkin Elmer Envision 2103 multilabel reader, and 24-h 1 μM staurosporine treatment used as a positive control for assay sensitivity.

hCoV-OC43 [1] = assay: hCoV-OC43 infectious virus production from MRCS cells by TCID50; assay type: cell-based; settings: for hCoV-OC43 infectious virus production: TCID50 after 48h, compared to equivalent concentrations of M3c or DMSO; for efficacy compared with remdesivir: hCoV-OC43 infectious virus production
Experimental: FIG. 8. Inhibiting METTL3 in lung fibroblasts limits hCOV-OC43 infectious virus production. MRCS cells infected with hCOV-OC43 [MOI=0.001] were treated with vehicle (DMSO), control compound (M3c) or active METTL3 inhibitor (M3i2 in A or M3i in B) at the indicated concentration. After 48h, the amount of infectious virus released was quantified by TCID50. N=3. **P<0.01; *P<0.05 by student's t-test.
In FIGS. 7B and 7C, each set of bars from left to right signifies DMSO, M3c and M3i2. […] To determine how METTL3 chemical inhibitors influenced virus production, we quantified and compared infectious virus produced by infected cell cultures treated with vehicle, a control compound (M3c), the two different METTL3 chemical inhibitors (M3i, M3i2) and remdesivir.

A549+ACE2 cells = settings: 48 h, FIG. 11B
SARS-CoV-2 [2] = assay: microbe, parasite or virus in culture; assay type: cell-based
SARS-CoV-2 [3] = assay: SARS-CoV-2 infectious virus titers from A549+ACE2 cells by plaque assay; assay type: cell-based; settings: MOI=0.1, 30 μM
Experimental: FIG. 11. Inhibition of METTL3 activity suppresses β-coronavirus replication in A549+ACE2 cells. […] The percentage of cells infected was established by green fluorescence and normalized to infection of nontreated cells. (B) The viability of A549+ACE2 cells in the presence of concentrations of each compound used in the infection assays shown in A was assessed using a commercial ATP quantitation assay. Cells were maintained at 37° C. in culture medium containing diluted compound for 48 h prior to lysis. Each experiment was conducted three times with internal duplicates, normalized to DMSO-treated cells processed in parallel and plotted as the mean±SEM. (C) Representative montages showing wells from the infections quantified in A that were treated with 30 μM M3c or M3i2 and infected with icSARS-CoV-2-mNG. (D) Infectious virus titers from A549+ACE2 cells infected with icSARS-CoV-2-mNG at MOI=0.1 and treated with 30 μM either M3c or M3i2 was determined by plaque assay.
This concordance further validates the high-content imaging assay as a measure of viral replication and release. Thus, a selective small molecule METTL3 inhibitor effectively suppresses the productive replication of human β-coronavirus, pandemic SARS-CoV-2 in a further human lung cell line.

hCoV-OC43 [4] = assay: hCoV-OC43 replication and spread in MRCS cells, N protein immunofluorescence, high-content imaging; assay type: cell-based
Experimental: FIG. 2. Inhibiting METTL3 in lung fibroblasts suppresses hCOV-OC43 replication. (A) MRCS cells infected with hCOV-OC43 [MOI=0.001] were treated with vehicle (DMSO), control compound (M3c), active METTL3 inhibitor (M3i) or (+) control antiviral remdesivir (rem). Viral spread through the culture was determined by immunofluorescence using an antibody to the hCoV-OC43 nucleocapsid protein (green stain). (B) Quantitation of N protein positive cells from (A) (n=3; **P<0.005; *P<0.05 by t-test for M3c vs M3i). Suppression of viral replication by M3i is evident from >0.5 mM and higher. (C) Test compounds (3 mM) have no significant impact on MRCS viability (n=3) after 48 h of treatment.
To evaluate how METTL3 enzymatic activity impacted coronavirus reproduction, we compared the activity of a specific METTL3 chemical inhibitor (Tzelepis et al., 2019), here termed M3i, to a structurally related control compound M3c unable to inhibit METTL3. […] To measure coronavirus replication, we developed an assay (FIG. 2A) that uses indirect immunofluorescence to detect coronavirus nucleocapsid protein (N) to monitor and quantify virus reproduction and spread using a high-content imaging platform (Cellinsight CX7 LZR). […] In FIG. 2C, the bars from left to right indicate DMSO, M3c, M3i, and remdesivir. […] In FIG. 3A, the bars from left to right represent DMSO, M3c and M3i. In FIG. 3B, the bars represent Not Treated, M3c and M3i. […] It is believed this requirement will extend to other RNA viruses, including coronaviruses with pandemic potential. The data further provide proof in principle that the cellular m^6A modification machinery represents an unexpected host target for anti-coronavirus drug targeting.

viral dsRNA = assay: Viral dsRNA accumulation, immunofluorescence with J2 dsRNA-specific antibody; assay type: cell-based
[5] = test system: coronavirus nucleocapsid protein (N); assay type: cell-based; settings: infected MRCS cells, 24 h treatment / 24 hpi
METTL3 = METTL3 (Homo sapiens, UniProt Q86U44); settings: Tzelepis et al., 2019; cited from earlier work
viral RNA = assay: Viral RNA accumulation by RT-qPCR; assay type: cell-based; settings: RT-qPCR (not shown)
SARS-CoV-2 [6] = assay type: cell-based; settings: FIG. 3A

Sequence of METTL3 (Q9HCE5 whole entry): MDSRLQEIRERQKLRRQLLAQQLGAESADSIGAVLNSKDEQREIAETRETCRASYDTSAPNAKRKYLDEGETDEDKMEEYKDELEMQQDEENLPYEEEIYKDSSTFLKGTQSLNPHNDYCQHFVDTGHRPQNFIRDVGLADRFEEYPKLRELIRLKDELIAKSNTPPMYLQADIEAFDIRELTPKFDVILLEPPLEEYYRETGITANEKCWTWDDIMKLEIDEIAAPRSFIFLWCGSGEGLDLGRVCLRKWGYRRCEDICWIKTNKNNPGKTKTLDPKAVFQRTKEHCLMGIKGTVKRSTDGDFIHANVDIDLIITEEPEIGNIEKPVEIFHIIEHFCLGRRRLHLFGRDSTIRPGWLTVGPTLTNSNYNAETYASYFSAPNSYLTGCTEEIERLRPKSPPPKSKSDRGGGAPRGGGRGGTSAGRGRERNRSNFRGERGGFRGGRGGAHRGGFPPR
Sequence of METTL3 (Q86U44 whole entry): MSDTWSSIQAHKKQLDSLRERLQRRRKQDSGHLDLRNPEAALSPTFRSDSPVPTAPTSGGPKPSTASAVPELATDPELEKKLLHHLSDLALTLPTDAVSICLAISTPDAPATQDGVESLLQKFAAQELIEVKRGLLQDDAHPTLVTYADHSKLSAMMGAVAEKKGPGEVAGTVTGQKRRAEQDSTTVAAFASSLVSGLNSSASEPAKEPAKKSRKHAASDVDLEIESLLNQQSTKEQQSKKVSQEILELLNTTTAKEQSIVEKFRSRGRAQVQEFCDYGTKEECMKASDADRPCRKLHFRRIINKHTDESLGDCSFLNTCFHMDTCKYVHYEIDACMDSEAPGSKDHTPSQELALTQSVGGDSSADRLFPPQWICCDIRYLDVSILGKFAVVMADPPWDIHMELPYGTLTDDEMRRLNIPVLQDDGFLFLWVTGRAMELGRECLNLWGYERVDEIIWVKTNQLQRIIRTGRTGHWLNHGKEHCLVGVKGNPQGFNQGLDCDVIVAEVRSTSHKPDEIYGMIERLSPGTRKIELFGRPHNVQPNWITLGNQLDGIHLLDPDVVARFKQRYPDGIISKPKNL

For O=C(NCc1cn2cc(CNCC3CCCCC3)ccc2n1)c1cc(=O)n2ccccc2n1 [M3i2], the “effects on cell viability” value (MRCS cells; 10 μM, MRCS cells (FIG. 7C)) was “without any discernible effects”, the “hCoV-OC43 infectious virus production” value (hCoV-OC43 [1]) was “reduced” and the “efficacy compared with remdesivir” value (hCoV-OC43 [1]; FIG. 8) was “neither were as efficacious as remdesivir”. The “viability of A549+ACE2 cells” value (A549+ACE2 cells) was “Minor differences”, the IC50 (SARS-CoV-2 [2]; Severe acute respiratory syndrome coronavirus 2, A549+ACE2 cells, read-out: IC50 against SARS-CoV-2) was 16.8 µM and the “icSARS-CoV-2-mNG-infected A549+ACE2 cells” value (SARS-CoV-2 [2]; higher concentrations, compared with DMSO or M3c) was “clearly reduced”. For the same compound, the “reduction of SARS-CoV-2 infectious virus production” value (SARS-CoV-2 [3]) was 300 fold and the “hCoV-OC43 reproduction and spread through MRCS cells” value (hCoV-OC43 [4]; 10 μM, compared to control compound M3c) was “inhibited”.
For CC1(C)CCN(Cc2ccc3nc(Cn4cc(-c5cc(Br)cc6[nH]ncc56)nn4)cn3c2)CC1 [M3i], the “cell viability of siRNA-treated cultures” value (MRCS cells; MRCS cells, siRNA-treated, FIG. 9C) was “did not detectably change”, the “effects on MRCS cell viability” value (MRCS cells; over the dosage range tested (FIG. 2C)) was “negligible detectable effects” and the “reduction of hCoV-OC43 replication compared with M3i2” value (hCoV-OC43 [1]; FIG. 8) was “to a greater extent than M3i2”. For the same compound, the “hCoV-OC43 infectious virus production” value (hCoV-OC43 [1]) was “reduced”, the “efficacy compared with remdesivir” value (hCoV-OC43 [1]; FIG. 8) was “neither were as efficacious as remdesivir” and the “viral dsRNA accumulation” value (viral dsRNA) was “blocks; also recorded: significant reduction”. The “N accumulation / N expression” value [5] was “reduced”, the “selectivity for METTL3” value (METTL3) was “highly selective” and the “accumulation of viral RNA” value (viral RNA) was “significant reduction”. For the same compound, the “SARS-CoV-2 replication in Calu-3 cells” value (SARS-CoV-2 [6]) was “significantly reduced”, the “impact on viability of Calu-3 cell” value (Calu-3 cells; concentrations of 3 mM or lower) was “minimal impact” and the “effects on Calu-3 cell viability” value (Calu-3 cells; over the dosage range tested (FIG. 3B)) was “negligible detectable effects”. The “concentration at which hCoV-OC43 replication and spread is strongly suppressed” value (hCoV-OC43 [4]; MRCS cells) was at least 0.5 µM and the “hCoV-OC43 reproduction and spread in MRCS cells” value (hCoV-OC43 [4]; compared to the inactive compound M3c, FIG. 9) was “reduced”.
For “AGGAGCCAGCCAAGAAAUCAA[dT][dT] [METTL3-2]”, the “hCoV-OC43 replication and spread (N protein positive cells) after METTL3 depletion” value (hCoV-OC43 [4]; cultures treated with M3c) was “not” and the “hCoV-OC43 replication and spread (N protein positive cells) after METTL3 depletion” value (hCoV-OC43 [4]; cultures treated with M3i) was “increased”.
For CACCUACGGACAGCUCAGU[dT][dT] [siRNA #4], the “reduction of the percentage of infected (mNeonGreen-positive) cells” value (“reduction of the percentage of infected” below) (SARS-CoV-2 [2]) was 89%.
With CUGCAAGUAUGUUCACUAUGA[dT][dT [METTL3-1] the “hCoV-OC43 replication and spread (N protein positive cells) after METTL3 depletion” value (hCoV-OC43 [4]; cultures treated with M3c) was “not” and the “hCoV-OC43 replication and spread (N protein positive cells) after METTL3 depletion” value (hCoV-OC43 [4]; cultures treated with M3i) was “increased”.
For “GAAACGCGGCGUUUGGGCA[dT][dT] [YTHDF1 siRNA #3]”, the “reduction of the percentage of infected” value (SARS-CoV-2 [2]) was 79%.
In the case of “GUAACGGAGACCAUCAUUU[dT][dT] [YTHDF1 siRNA #1]”, the “reduction of the percentage of infected” value (SARS-CoV-2 [2]) is reported as 68%.
In the case of “GUCAAUGGGAGUGGGCAUU[dT][dT] [YTHDF1 siRNA #2]”, the “reduction of the percentage of infected” value (SARS-CoV-2 [2]; siRNA 72 h before infection, MOI=0.1, 48 h, compared with control nonsilencing siRNA) is reported as 23%.
